From patent US10669242B2 (priority 2016, dated 2020)

target: T1, recombinant glucosyltransferase domain of C. difficile Toxin B/TcdB (Clostridioides difficile, UniProt P18177); assay: biochemical; details: not given
T1 construct: 6-His (C); purchased R&D Systems 6246-GT
T1 sequence (P18177 1-543): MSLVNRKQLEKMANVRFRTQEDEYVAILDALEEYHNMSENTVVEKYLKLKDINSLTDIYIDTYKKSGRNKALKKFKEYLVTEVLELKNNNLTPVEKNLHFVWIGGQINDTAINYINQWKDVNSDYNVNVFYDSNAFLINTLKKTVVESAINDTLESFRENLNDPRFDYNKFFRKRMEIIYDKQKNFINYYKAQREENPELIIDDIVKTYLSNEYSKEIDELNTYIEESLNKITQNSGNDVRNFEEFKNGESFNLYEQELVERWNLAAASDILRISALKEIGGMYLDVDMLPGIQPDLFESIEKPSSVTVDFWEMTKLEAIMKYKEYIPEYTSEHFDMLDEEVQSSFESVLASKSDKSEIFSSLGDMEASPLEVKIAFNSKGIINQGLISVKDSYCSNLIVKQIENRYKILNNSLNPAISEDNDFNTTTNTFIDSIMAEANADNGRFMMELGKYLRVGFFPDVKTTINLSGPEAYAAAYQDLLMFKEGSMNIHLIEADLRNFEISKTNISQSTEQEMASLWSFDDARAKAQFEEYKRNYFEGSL

| SMILES | IC50 [nM] |
| --- | --- |
| O=C(Nc1ccccn1)c1ccc(CN2C(=O)c3ccc(Cl)cc3NC(=O)[C@H]2Cc2ccccn2)s1 [Example 4bq, (R)-5-((8-chloro-2,5-dioxo-3-(pyridin-2-ylmethyl)-2,3-dihydro-1H-benzo[e][1,4]diazepin-4(5H)-yl)methyl)-N-(pyridin-2-yl)thiophene-2-carboxamide] | 100 to 999 |
| COc1ccc(NC(=O)c2ccc(CN3C(=O)c4ccc(Cl)cc4NC(=O)[C@H]3Cc3ccccn3)s2)nc1 [Example 4br, (R)-5-((8-chloro-2,5-dioxo-3-(pyridin-2-ylmethyl)-2,3-dihydro-1H-benzo[e][1,4]diazepin-4(5H)-yl)methyl)-N-(5-methoxypyridin-2-yl)thiophene-2-carboxamide] | 100 to 999 |
| Cc1ccc(NC(=O)c2ccc(CN3C(=O)c4ccc(Cl)cc4NC(=O)[C@H]3Cc3ccccn3)s2)nc1 [Example 4bs, (R)-5-((8-chloro-2,5-dioxo-3-(pyridin-2-ylmethyl)-2,3-dihydro-1H-benzo[e][1,4]diazepin-4(5H)-yl)methyl)-N-(5-methylpyridin-2-yl)thiophene-2-carboxamide] | 100 to 999 |
| O=C(Nc1ccc(C(F)(F)F)cn1)c1ccc(CN2C(=O)c3ccc(Cl)cc3NC(=O)[C@H]2Cc2ccccn2)s1 [Example 4bt, (R)-5-((8-chloro-2,5-dioxo-3-(pyridin-2-ylmethyl)-2,3-dihydro-1H-benzo[e][1,4]diazepin-4(5H)-yl)methyl)-N-(5-(trifluoromethyl)pyridin-2-yl)thiophene-2-carboxamide] | 1000 to 10000 |
| O=C(Nc1ccccn1)c1ccc(CN2C(=O)c3ccc(Cl)cc3NC(=O)C2Cc2cnccn2)cc1 (stereo not drawn) [Example 4bu, 4-((8-chloro-2,5-dioxo-3-(pyrazin-2-ylmethyl)-2,3-dihydro-1H-benzo[e][1,4]diazepin-4(5H)-yl)methyl)-N-(pyridin-2-yl)benzamide] | < 100 |
| CC(=NO)NC(=O)c1ccc(CN2C(=O)c3ccc(Cl)cc3NC(=O)[C@H]2Cc2cccnc2)cc1 [Example 4bv, (R)-4-((8-chloro-2,5-dioxo-3-(pyridin-3-ylmethyl)-2,3-dihydro-1H-benzo[e][1,4]diazepin-4(5H)-yl)methyl)-N-(1-(hydroxyimino)ethyl)benzamide] | 100 to 999 |
| Cc1cnc(NC(=O)c2ccc(CN3C(=O)c4ccc(Cl)cc4NC(=O)[C@H]3Cc3ccccn3)cc2)s1 [Example 4bw, (R)-4-((8-chloro-2,5-dioxo-3-(pyridin-2-ylmethyl)-2,3-dihydro-1H-benzo[e][1,4]diazepin-4(5H)-yl)methyl)-N-(5-methylthiazol-2-yl)benzamide] | < 100 |
| Cc1ccc(NC(=O)[C@H]2CC[C@H](CN3C(=O)c4ccc(Cl)cc4NC(=O)[C@H]3Cc3ccccn3)CC2)nc1 [Example 4bx, (1R,4r)-4-(((R)-8-chloro-2,5-dioxo-3-(pyridin-2-ylmethyl)-2,3-dihydro-1H-benzo[e][1,4]diazepin-4(5H)-yl)methyl)-N-(5-methylpyridin-2-yl)cyclohexanecarboxamide] | < 100 |
| O=C(Nc1nccs1)c1ccc(CN2C(=O)c3ccc(Cl)cc3NC(=O)[C@H]2Cc2cccnc2)cc1 [Example 4c, (R)-4-((8-chloro-2,5-dioxo-3-(pyridin-3-ylmethyl)-2,3-dihydro-1H-benzo[e][1,4]diazepin-4(5H)-yl)methyl)-N-(thiazol-2-yl)benzamide] | < 100 |
| O=C1Nc2cc(Cl)ccc2C(=O)N(C[C@H]2CC[C@H](C(=O)Nc3ccc(F)cn3)CC2)[C@@H]1Cc1ccccn1 [Example 4ca, (1R,4r)-4-(((R)-8-chloro-2,5-dioxo-3-(pyridin-2-ylmethyl)-2,3-dihydro-1H-benzo[e][1,4]diazepin-4(5H)-yl)methyl)-N-(5-fluoropyridin-2-yl)cyclohexanecarboxamide] | < 100 |
| Cc1cnc(NC(=O)c2ccc(CN3C(=O)c4ccc(Cl)cc4NC(=O)[C@H]3Cc3ccccn3)cc2Cl)s1 [Example 4cc, (R)-2-chloro-4-((8-chloro-2,5-dioxo-3-(pyridin-2-ylmethyl)-2,3-dihydro-1H-benzo[e][1,4]diazepin-4(5H)-yl)methyl)-N-(5-methylthiazol-2-yl)benzamide] | < 100 |
| O=C1Nc2cc(Cl)ccc2C(=O)N(Cc2ccc(C(=O)N3CCc4cccnc43)c(Cl)c2)[C@@H]1Cc1ccccn1 [Example 4cd, (R)-8-chloro-4-(3-chloro-4-(2,3-dihydro-1H-pyrrolo[2,3-b]pyridine-1-carbonyl)benzyl)-3-(pyridin-2-ylmethyl)-3,4-dihydro-1H-benzo[e][1,4]diazepine-2,5-dione] | < 100 |
| COc1cnc(NC(=O)[C@H]2CC[C@H](CN3C(=O)c4ccc(Cl)cc4NC(=O)[C@H]3Cc3ccccn3)CC2)cn1 [Example 4ce, (1R,4r)-4-(((R)-8-chloro-2,5-dioxo-3-(pyridin-2-ylmethyl)-2,3-dihydro-1H-benzo[e][1,4]diazepin-4(5H)-yl)methyl)-N-(5-methoxypyrazin-2-yl)cyclohexanecarboxamide] | 100 to 999 |
| Cc1cnc(NC(=O)[C@H]2CC[C@H](CN3C(=O)c4ccc(Cl)cc4NC(=O)[C@H]3Cc3ccccn3)CC2)cn1 [Example 4cf, (1R,4r)-4-(((R)-8-chloro-2,5-dioxo-3-(pyridin-2-ylmethyl)-2,3-dihydro-1H-benzo[e][1,4]diazepin-4(5H)-yl)methyl)-N-(5-methylpyrazin-2-yl)cyclohexanecarboxamide] | < 100 |
| O=C1Nc2cc(Cl)ccc2C(=O)N(C[C@H]2CC[C@H](C(=O)N3CCc4cccnc43)CC2)[C@@H]1Cc1ccccn1 [Example 4cg, (R)-8-chloro-4-(((1r,4R)-4-(2,3-dihydro-1H-pyrrolo[2,3-b]pyridine-1-carbonyl)cyclohexyl)methyl)-3-(pyridin-2-ylmethyl)-3,4-dihydro-1H-benzo[e][1,4]diazepine-2,5-dione] | < 100 |
| O=C1Nc2cc(Cl)ccc2C(=O)N(C[C@H]2CC[C@H](C(=O)N3CCCc4cccnc43)CC2)[C@@H]1Cc1ccccn1 [Example 4ch, (R)-8-chloro-3-(pyridin-2-ylmethyl)-4-(((1r,4R)-4-(1,2,3,4-tetrahydro-1,8-naphthyridine-1-carbonyl)cyclohexyl)methyl)-3,4-dihydro-1H-benzo[e][1,4]diazepine-2,5-dione] | 10000 to 35000 |
| O=C(Nc1ccccn1)c1ccc(CN2C(=O)c3ccc(Cl)cc3NC(=O)[C@H]2Cc2ccccn2)cc1Cl [Example 4cj, (R)-2-chloro-4-((8-chloro-2,5-dioxo-3-(pyridin-2-ylmethyl)-2,3-dihydro-1H-benzo[e][1,4]diazepin-4(5H)-yl)methyl)-N-(pyridin-2-yl)benzamide] | < 100 |
| COc1ccc(NC(=O)c2ccc(CN3C(=O)c4ccc(Cl)cc4NC(=O)[C@H]3Cc3ccccn3)cc2OC)nc1 [Example 4cn, (R)-4-((8-chloro-2,5-dioxo-3-(pyridin-2-ylmethyl)-2,3-dihydro-1H-benzo[e][1,4]diazepin-4(5H)-yl)methyl)-2-methoxy-N-(5-methoxypyridin-2-yl)benzamide] | < 100 |
| Cc1ccc(C[C@@H]2C(=O)Nc3cc(Cl)ccc3C(=O)N2Cc2ccc(C(=O)Nc3ccccn3)cc2)cc1 [Example 4co, (R)-4-((8-chloro-3-(4-methylbenzyl)-2,5-dioxo-2,3-dihydro-1H-benzo[e][1,4]diazepin-4(5H)-yl)methyl)-N-(pyridin-2-yl)benzamide] | 100 to 999 |
| Cn1ccc(NC(=O)c2ccc(CN3C(=O)c4ccc(Cl)cc4NC(=O)[C@H]3Cc3cccnc3)cc2)n1 [Example 4d, (R)-4-((8-chloro-2,5-dioxo-3-(pyridin-3-ylmethyl)-2,3-dihydro-1H-benzo[e][1,4]diazepin-4(5H)-yl)methyl)-N-(1-methyl-1H-pyrazol-3-yl)benzamide] | 100 to 999 |
| Cc1cc(NC(=O)c2ccc(CN3C(=O)c4ccc(Cl)cc4NC(=O)[C@H]3Cc3cccnc3)cc2)no1 [Example 4e, (R)-4-((8-chloro-2,5-dioxo-3-(pyridin-3-ylmethyl)-2,3-dihydro-1H-benzo[e][1,4]diazepin-4(5H)-yl)methyl)-N-(5-methylisoxazol-3-yl)benzamide] | < 100 |
| C[C@H]1C(=O)Nc2cc(Cl)ccc2C(=O)N1Cc1ccc(C(=O)Nc2ccccn2)cc1 [Example 4f, (S)-4-((8-chloro-3-methyl-2,5-dioxo-2,3-dihydro-1H-benzo[e][1,4]diazepin-4(5H)-yl)methyl)-N-(pyridin-2-yl)benzamide] | < 100 |
| O=C(Nc1ccccn1)c1ccc(CN2C(=O)c3ccc(Cl)cc3NC(=O)[C@H]2CCc2ccccc2)cc1 [Example 4g, (R)-4-((8-chloro-2,5-dioxo-3-phenethyl-2,3-dihydro-1H-benzo[e][1,4]diazepin-4(5H)-yl)methyl)-N-(pyridin-2-yl)benzamide] | 1000 to 10000 |
| O=C(Nc1ccccn1)c1ccc(CN2C(=O)c3ccc(Cl)cc3NC(=O)[C@H]2Cc2ccccc2)cc1 [Example 4h, (R)-4-((3-benzyl-8-chloro-2,5-dioxo-2,3-dihydro-1H-benzo[e][1,4]diazepin-4(5H)-yl)methyl)-N-(pyridin-2-yl)benzamide] | < 100 |
| O=C(Nc1ccccn1)c1ccc(CN2C(=O)c3ccc(Cl)cc3NC(=O)[C@H]2Cc2ccc(F)cc2)cc1 [Example 4i, (R)-4-((8-chloro-3-(4-fluorobenzyl)-2,5-dioxo-2,3-dihydro-1H-benzo[e][1,4]diazepin-4(5H)-yl)methyl)-N-(pyridin-2-yl)benzamide] | < 100 |
| O=C(Nc1ccccn1)c1ccc(CN2C(=O)c3ccc(Cl)cc3NC(=O)[C@H]2Cc2ccc(Cl)cc2)cc1 [Example 4j, (R)-4-((8-chloro-3-(4-chlorobenzyl)-2,5-dioxo-2,3-dihydro-1H-benzo[e][1,4]diazepin-4(5H)-yl)methyl)-N-(pyridin-2-yl)benzamide] | 1000 to 10000 |

same assay, conditions: read-out: TcdB UDP-Glucose hydrolysis activity (IC50, coded); UDP-Glucose hydrolysis assay, fluorescence polarization

| SMILES | IC50 [nM] |
| --- | --- |
| COc1ccc(NC(=O)C2CCC(CN3C(=O)c4ccc(Cl)cc4NC(=O)[C@H]3Cc3ccccn3)CC2)nc1 (stereo partly drawn) [Example 4bz, (1R,4r)-4-(((R)-8-chloro-2,5-dioxo-3-(pyridin-2-ylmethyl)-2,3-dihydro-1H-benzo[e][1,4]diazepin-4(5H)-yl)methyl)-N-(5-methoxypyridin-2-yl)cyclohexanecarboxamide] | < 100 |
